Source: patent US20090275586A1, “HETEROCYCLIC INHIBITORS OF PDE4” (KALYPSYS, INC., priority 2006, published 2009)

How the values were obtained:
[1] = system: recombinant human PDE4; conditions: reported value; read-out: IC50 with respect to inhibiting recombinant human PDE4; cited from earlier work
[2] = system: PDE4; assay: PDE4 Cellular CNG Assay; assay type: cell-based; conditions: Activity at 10 μM; HEK293 cells stably expressing the CNG channel
Source text: Compounds may be screened for functional potency in in vitro cellular assays for their ability to inhibit the activity of phosphodiesterase (PDE) enzymes. A commercial membrane potential assay, Molecular Device's membrane potential assay kit, was modified and utilized to measure the inhibitory activity of compounds on PDE isoforms in living cells. The cellular assay utilizes genetically engineered cyclic nucleotide-gated (CNG) channels as cyclic-AMP (cAMP) sensors. On binding cAMP these ion channels open, allowing the flow of cations across the plasma membrane. CNG channel activity can be monitored by measuring Ca^2+ influx in cell populations. The influx of Ca causes a change in membrane potential that is measured by voltage sensitive dyes. PDE inhibitors prevent the degradation of cAMP that is generated by adenylyl cyclases that are activated upon stimulation of G protein-coupled receptors (GPCR) linked to the cAMP pathway. In brief, Molecular Device's membrane potential dye was added to HEK293 cells stably expressing the CNG channel and incubated for 2 hours at room temperature. Test compounds were then added to the cells and incubated for 15 minutes. A GPCR agonist was then added to the cells to stimulate the cAMP pathway and incubated for 45 minutes. Fluorescent measurements were then conducted with either the Molecular Devices Acquest or Analyst. PDE inhibitors will inhibit the degradation of cAMP and cause an increase in fluorescent signal. Roflumilast and Rolipram are the positive controls used in the assay.

[3] = target: T1, PDE4B (Homo sapiens, UniProt Q07343); assay: PDE4 IMAP Assay; assay type: biochemical; conditions: 2 h; Activity at 10 μM; catalytic domain of PDE4B; read-out: PDE IMAP Assay
T1 construct: hexa-histidine (His6) (N); made in house
T1 sequence (Q07343 330-659 limits assumed, species assumed): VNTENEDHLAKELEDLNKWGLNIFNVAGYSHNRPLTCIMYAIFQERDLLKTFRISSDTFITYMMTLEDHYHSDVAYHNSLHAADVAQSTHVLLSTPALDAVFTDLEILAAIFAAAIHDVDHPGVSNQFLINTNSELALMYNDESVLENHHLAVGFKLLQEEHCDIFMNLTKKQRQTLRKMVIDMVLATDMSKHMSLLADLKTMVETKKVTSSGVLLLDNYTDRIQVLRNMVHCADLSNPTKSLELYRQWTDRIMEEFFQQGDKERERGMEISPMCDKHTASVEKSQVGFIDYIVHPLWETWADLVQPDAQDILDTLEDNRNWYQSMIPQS
Source text: Compounds may be screened for functional potency in in vitro biochemical assays for their ability to inhibit the activity of phosphodiesterase (PDE) enzymes. A commercial PDE assay, Molecular Device's PDE IMAP assay, was modified and utilized to measure the inhibitory activity of compounds on PDE isoforms. The IMAP technology is based on the high affinity binding of phosphate by immobilized metal (MIII) coordination complexes on nanoparticles. This IMAP “binding reagent” complexes with phosphate groups on the nucleotide monophosphates generated in the reaction. Such binding causes a change in the rate of the molecular motion of the nucleotide, and results in an increase in the fluorescence polarization value observed for the fluorescent label attached to the substrate. PDE inhibitors prevent the generation of nucleotide monophosphates and the subsequent increase in polarization value observed for the fluorescent label attached to the substrate. The catalytic domain of PDE4B was fused to an amino-terminus hex-histadine affinity tag and purified. PDE4B enzyme was incubated with compounds for 10 minutes. Fluorescently labeled cyclic AMP substrates were then added to the PDE enzyme mix and incubated for 2 hours at room temperature. IMAP binding reagent was then added to the enzyme mix, incubated for 10-30 minutes and fluorescent polarization of the fluorescently labeled substrate was read either with the Perkin Elmer Viewlux or Molecular Devices Acquest or Analyst. Roflumilast and Rolipram are the positive controls used in the assay.

For `COc1ccc(C2CNC(=O)C2)cc1OC1CCCC1` (stereo not shown) [rolipram], which IC50 [1] is on record?
Its IC50 is about 200 nM.

For `CC(C)c1nc2sc3c(NCCCO)ncnc3c2c2c1COC(C)(C)C2` [Example 8, 3-(5-Isopropyl-2,2-dimethyl-1,4-dihydro-2H-3-oxa-7-thia-6,9,11-triazabenzo[c]fluoren-8-ylamino)-propan-1-ol], which “Cellular CNG Assay” value [2] is on record?
The value was “+ (+indicates Activity ≧ 50% at 10 μM)”.

What about the inhibition at 10 µM [3] of the same compound?
The inhibition at 10 µM was at least 50%.

For `COc1ccc(-c2cnnn2-c2ccc(NC(=O)c3ccc4c(c3)OCO4)cc2)cc1OC` [Example 23, N-(4-(5-(3,4-dimethoxyphenyl)-1H-1,2,3-triazol-1-yl)phenyl)benzo[d][1,3]dioxole-5-carboxamide], which “Cellular CNG Assay” value [2] is on record?
Its value is “+ (+indicates Activity ≧ 50% at 10 μM)”.

What about the inhibition at 10 µM [3] of the same compound?
The inhibition at 10 µM was at least 50%.

With `CCOC(=O)N1CCN(C(=O)c2cnn3c(C(F)(F)F)cc(-c4ccc(OC)c(OC)c4)nc23)CC1` [Example 17, Ethyl 4-(5-(3,4-dimethoxyphenyl)-7-(trifluoromethyl)pyrazolo[1,5-a]pyrimidine-3-carbonyl)piperazine-1-carboxylate] as the compound, how does the “Cellular CNG Assay” value [2] read?
Its value is “+ (+indicates Activity ≧ 50% at 10 μM)”.

And the inhibition at 10 µM [3]?
Its inhibition at 10 µM is at least 50%.

For `CC(C)n1c(=O)c(=O)n(Cc2cccc(C(F)(F)F)c2)c2cc(S(C)(=O)=O)ccc21` [Example 15, 1-Isopropyl-6-(methylsulfonyl)-4-(3-(trifluoromethyl)benzyl)quinoxaline-2,3(1H,4H)-dione], which “Cellular CNG Assay” value [2] is on record?
The value was “+ (+indicates Activity ≧ 50% at 10 μM)”.

What about the inhibition at 10 µM [3] of the same compound?
Its inhibition at 10 µM is at least 50%.

Which “Cellular CNG Assay” value [2] does the source give for `COc1ccccc1Cn1c(=O)c2cccnc2n(Cc2ccccc2F)c1=O` [Example 27, 1-(2-Fluorobenzyl)-3-(2-methoxybenzyl)pyrido[2,3-d]pyrimidine-2,4(1H,3H)-dione] here?
The value was “+ (+indicates Activity ≧ 50% at 10 μM)”.

What about the inhibition at 10 µM [3] of the same compound?
Its inhibition at 10 µM is at least 50%.

For `O=c1n(Cc2ccncc2)nc2c3ccccc3nc(C3CC3)n12` [Example 21, 5-Cyclopropyl-2-(pyridin-4-ylmethyl)-[1,2,4]triazolo[4,3-c]quinazolin-3(2H)-one], which “Cellular CNG Assay” value [2] is on record?
Its value is “+ (+indicates Activity ≧ 50% at 10 μM)”.

What about the inhibition at 10 µM [3] of the same compound?
The inhibition at 10 µM was at least 50%.
